{"source": "patent US11214548B2", "about": "“Cannabinoid receptor modulators” (priority 2009, dated 2022)", "origin": "cited, not measured here", "key": {"[1]": {"system": "capsaicin-induced coughs", "conditions": "guinea pigs; cited from earlier work"}, "[2]": {"system": "acute and chronic pain", "conditions": "animal studies; cited from earlier work"}}, "data": [{"smiles": "CCCCC/C=C\\C/C=C\\C/C=C\\C/C=C\\CCCC(=O)NCCO", "note": "[anandamide]", "values": [{"measurement": "number of capsaicin-induced coughs", "setting": "[1]", "result": "dose-dependent inhibition"}, {"measurement": "effect against acute and chronic pain from chemical, mechanical, and thermal pain stimuli", "setting": "[2]", "result": "effective"}]}]}
